Source: US9249129B2, “Morpholino substituted urea derivatives as mTOR inhibitors” (CELLZOME LIMITED, priority 2010, dated 2016)

Experiments:
Experiment in all cases: kinobeads assay with mass spectrometry detection of kinases (kinase selectivity profile)
Assay type in all cases: binding
kinases (kinome) [1] = target: T1, kinases (kinome) (Homo sapiens, UniProt O96013); conditions: PAK4 (STE), IPI00014068
T1 construct: determined in kinobeads assays with mass spectrometry detection of kinases as described previously; endogenous in cells; host or cells: cell lysate
Text: (§1) The protein kinase complement of the human genome (the kinome) was described previously (Manning et al., 2002. Science 298(5600):1912-1934). Sequence accession numbers are defined by the International Protein Index (IPI) (Kersey et al., 2004. Proteomics 4(7):1985-1988).

kinases (kinome) [2] = target: T2, kinases (kinome) (Homo sapiens, UniProt P42680); conditions: TEC (TK), IPI00000878
T2 construct: determined in kinobeads assays with mass spectrometry detection of kinases as described previously; endogenous in cells; host or cells: cell lysate
T2 sequence (P42680 1-631): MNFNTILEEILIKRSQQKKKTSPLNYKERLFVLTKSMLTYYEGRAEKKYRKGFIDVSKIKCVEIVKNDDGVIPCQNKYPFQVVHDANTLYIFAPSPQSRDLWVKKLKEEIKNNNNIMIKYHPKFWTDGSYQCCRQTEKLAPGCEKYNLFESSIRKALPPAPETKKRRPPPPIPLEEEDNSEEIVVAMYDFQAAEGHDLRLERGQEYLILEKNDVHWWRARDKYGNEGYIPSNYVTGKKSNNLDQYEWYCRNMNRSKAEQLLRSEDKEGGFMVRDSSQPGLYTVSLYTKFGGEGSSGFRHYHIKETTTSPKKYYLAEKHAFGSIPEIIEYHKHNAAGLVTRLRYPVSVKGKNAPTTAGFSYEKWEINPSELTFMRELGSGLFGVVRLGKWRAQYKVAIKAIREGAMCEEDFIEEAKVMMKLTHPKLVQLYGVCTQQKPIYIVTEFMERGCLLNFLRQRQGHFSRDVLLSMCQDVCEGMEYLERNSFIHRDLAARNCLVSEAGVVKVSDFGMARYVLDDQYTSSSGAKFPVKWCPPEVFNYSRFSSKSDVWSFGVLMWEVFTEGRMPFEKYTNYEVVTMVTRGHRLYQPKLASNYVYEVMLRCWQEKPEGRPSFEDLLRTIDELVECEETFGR
Text: as §1

kinases (kinome) [3] = target: T3, kinases (kinome) (Homo sapiens, UniProt P48730); conditions: CK1d (CK1), IPI00011102
T3 construct: determined in kinobeads assays with mass spectrometry detection of kinases as described previously; endogenous in cells; host or cells: cell lysate
Text: as §1

kinases (kinome) [4] = target: T4, kinases (kinome) (Homo sapiens, UniProt P51451); conditions: BLK (TK), IPI00554756
T4 construct: determined in kinobeads assays with mass spectrometry detection of kinases as described previously; endogenous in cells; host or cells: cell lysate
Text: as §1

kinases (kinome) [5] = target: T5, kinases (kinome) (Homo sapiens, UniProt P68400); conditions: CK2a1 (Other), IPI00016613
T5 construct: determined in kinobeads assays with mass spectrometry detection of kinases as described previously; endogenous in cells; host or cells: cell lysate
Text: as §1

kinases (kinome) [6] = target: T6, kinases (kinome) (Homo sapiens, UniProt Q06187); conditions: BTK (TK), IPI00029132
T6 construct: determined in kinobeads assays with mass spectrometry detection of kinases as described previously; endogenous in cells; host or cells: cell lysate
Text: as §1

kinases (kinome) [7] = target: T7, kinases (kinome) (Homo sapiens, UniProt Q13705); conditions: ACTR2B (TKL), IPI00437565
T7 construct: determined in kinobeads assays with mass spectrometry detection of kinases as described previously; endogenous in cells; host or cells: cell lysate
Text: as §1

kinases (kinome) [8] = target: T8, kinases (kinome) (Homo sapiens, UniProt Q6PHR2); conditions: ULK3 (Other), IPI00910978
T8 construct: determined in kinobeads assays with mass spectrometry detection of kinases as described previously; endogenous in cells; host or cells: cell lysate
T8 sequence (Q6PHR2 1-472): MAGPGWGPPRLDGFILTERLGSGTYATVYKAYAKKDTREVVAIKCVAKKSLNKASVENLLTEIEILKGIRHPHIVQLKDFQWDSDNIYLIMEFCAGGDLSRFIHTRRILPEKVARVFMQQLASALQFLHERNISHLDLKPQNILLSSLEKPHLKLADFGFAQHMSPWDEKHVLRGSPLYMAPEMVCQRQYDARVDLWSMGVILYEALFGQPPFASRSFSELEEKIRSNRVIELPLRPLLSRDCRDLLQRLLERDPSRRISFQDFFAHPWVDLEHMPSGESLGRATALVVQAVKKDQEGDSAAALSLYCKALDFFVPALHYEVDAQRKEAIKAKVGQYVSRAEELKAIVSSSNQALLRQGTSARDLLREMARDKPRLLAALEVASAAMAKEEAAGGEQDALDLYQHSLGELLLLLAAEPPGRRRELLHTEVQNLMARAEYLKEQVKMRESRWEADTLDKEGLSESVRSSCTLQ
Text: as §1

kinases (kinome) [9] = target: T9, kinases (kinome) (Homo sapiens, UniProt Q7KZI7); conditions: MARK2 (CAMK), IPI00555838
T9 construct: determined in kinobeads assays with mass spectrometry detection of kinases as described previously; endogenous in cells; host or cells: cell lysate
Text: as §1

kinases (kinome) [10] = target: T10, kinases (kinome) (Homo sapiens, UniProt Q8NI60); conditions: ADCK3 (Atypical), IPI00176469
T10 construct: determined in kinobeads assays with mass spectrometry detection of kinases as described previously; endogenous in cells; host or cells: cell lysate
Text: as §1

kinases (kinome) [11] = target: T11, kinases (kinome) (Homo sapiens, UniProt Q8TCG2); conditions: PIK4C2B (Lipid Kinase), IPI00291068
T11 construct: determined in kinobeads assays with mass spectrometry detection of kinases as described previously; endogenous in cells; host or cells: cell lysate
Text: as §1

kinases (kinome) [12] = target: T12, kinases (kinome) (Homo sapiens, UniProt Q9UBF8); conditions: PIK4Cb (Lipid Kinase), IPI00641770
T12 construct: determined in kinobeads assays with mass spectrometry detection of kinases as described previously; endogenous in cells; host or cells: cell lysate
Text: as §1

kinases (kinome) [13] = target: T13, kinases (kinome) (Homo sapiens, UniProt Q9UHD2); conditions: TBK1 (Other), IPI00293613
T13 construct: determined in kinobeads assays with mass spectrometry detection of kinases as described previously; endogenous in cells; host or cells: cell lysate
T13 sequence (Q9UHD2 1-729): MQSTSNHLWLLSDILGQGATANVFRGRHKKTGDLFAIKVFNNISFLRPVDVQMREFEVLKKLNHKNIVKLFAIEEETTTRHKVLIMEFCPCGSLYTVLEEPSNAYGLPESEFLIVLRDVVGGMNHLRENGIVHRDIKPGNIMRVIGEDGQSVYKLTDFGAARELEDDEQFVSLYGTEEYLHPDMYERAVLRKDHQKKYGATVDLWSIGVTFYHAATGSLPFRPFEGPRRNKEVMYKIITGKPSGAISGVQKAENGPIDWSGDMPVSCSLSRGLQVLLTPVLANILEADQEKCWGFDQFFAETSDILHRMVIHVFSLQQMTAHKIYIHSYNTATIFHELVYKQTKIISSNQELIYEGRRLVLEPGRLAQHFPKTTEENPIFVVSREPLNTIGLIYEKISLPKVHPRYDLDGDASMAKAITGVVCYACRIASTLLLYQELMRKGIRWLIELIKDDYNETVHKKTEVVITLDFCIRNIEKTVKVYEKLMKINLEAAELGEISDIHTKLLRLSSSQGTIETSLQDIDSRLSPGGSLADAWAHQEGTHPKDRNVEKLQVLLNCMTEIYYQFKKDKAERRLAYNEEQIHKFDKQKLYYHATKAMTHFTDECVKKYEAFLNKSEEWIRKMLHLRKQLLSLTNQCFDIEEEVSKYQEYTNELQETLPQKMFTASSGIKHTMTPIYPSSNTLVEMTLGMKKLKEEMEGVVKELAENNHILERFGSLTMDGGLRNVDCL
Text: as §1

Measured: IC50

T3 sequence (P48730 whole entry): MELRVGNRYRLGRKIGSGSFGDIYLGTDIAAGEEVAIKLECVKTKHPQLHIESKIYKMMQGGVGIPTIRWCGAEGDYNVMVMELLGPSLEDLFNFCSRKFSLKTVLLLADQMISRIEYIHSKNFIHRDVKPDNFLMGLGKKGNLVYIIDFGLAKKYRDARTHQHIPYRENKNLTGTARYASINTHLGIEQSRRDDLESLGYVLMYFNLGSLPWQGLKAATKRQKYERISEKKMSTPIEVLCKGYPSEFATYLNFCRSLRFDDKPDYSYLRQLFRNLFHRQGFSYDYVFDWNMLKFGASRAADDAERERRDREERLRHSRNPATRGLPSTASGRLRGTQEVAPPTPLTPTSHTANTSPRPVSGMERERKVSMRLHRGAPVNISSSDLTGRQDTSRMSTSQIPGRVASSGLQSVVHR
T10 sequence (Q8NI60 163-647): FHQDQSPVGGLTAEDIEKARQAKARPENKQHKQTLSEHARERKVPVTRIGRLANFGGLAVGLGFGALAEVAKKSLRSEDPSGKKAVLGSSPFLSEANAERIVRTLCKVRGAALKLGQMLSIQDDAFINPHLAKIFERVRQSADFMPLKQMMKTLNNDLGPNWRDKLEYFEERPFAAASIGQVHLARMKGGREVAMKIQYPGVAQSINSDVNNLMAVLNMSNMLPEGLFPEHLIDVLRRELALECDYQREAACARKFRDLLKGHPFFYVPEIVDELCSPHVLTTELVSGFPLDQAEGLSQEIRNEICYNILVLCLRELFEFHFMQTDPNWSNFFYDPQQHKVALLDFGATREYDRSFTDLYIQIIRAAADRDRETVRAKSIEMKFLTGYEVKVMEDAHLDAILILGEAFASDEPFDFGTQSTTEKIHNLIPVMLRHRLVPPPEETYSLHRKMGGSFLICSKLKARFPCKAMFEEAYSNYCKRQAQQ
T11 sequence (Q8TCG2 whole entry): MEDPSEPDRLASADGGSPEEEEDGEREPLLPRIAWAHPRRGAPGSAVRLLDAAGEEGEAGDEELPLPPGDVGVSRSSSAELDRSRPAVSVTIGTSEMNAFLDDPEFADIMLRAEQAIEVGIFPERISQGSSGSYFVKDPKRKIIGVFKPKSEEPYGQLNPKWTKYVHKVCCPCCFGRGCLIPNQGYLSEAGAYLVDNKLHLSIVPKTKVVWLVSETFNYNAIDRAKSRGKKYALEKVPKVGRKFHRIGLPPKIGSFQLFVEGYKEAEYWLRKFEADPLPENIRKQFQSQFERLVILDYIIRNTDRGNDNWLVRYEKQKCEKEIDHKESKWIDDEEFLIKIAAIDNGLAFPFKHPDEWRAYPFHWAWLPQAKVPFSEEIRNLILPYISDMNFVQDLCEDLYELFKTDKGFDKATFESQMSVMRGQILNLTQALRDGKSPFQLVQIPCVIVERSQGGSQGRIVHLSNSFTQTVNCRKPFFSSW
T1 sequence (O96013 whole entry): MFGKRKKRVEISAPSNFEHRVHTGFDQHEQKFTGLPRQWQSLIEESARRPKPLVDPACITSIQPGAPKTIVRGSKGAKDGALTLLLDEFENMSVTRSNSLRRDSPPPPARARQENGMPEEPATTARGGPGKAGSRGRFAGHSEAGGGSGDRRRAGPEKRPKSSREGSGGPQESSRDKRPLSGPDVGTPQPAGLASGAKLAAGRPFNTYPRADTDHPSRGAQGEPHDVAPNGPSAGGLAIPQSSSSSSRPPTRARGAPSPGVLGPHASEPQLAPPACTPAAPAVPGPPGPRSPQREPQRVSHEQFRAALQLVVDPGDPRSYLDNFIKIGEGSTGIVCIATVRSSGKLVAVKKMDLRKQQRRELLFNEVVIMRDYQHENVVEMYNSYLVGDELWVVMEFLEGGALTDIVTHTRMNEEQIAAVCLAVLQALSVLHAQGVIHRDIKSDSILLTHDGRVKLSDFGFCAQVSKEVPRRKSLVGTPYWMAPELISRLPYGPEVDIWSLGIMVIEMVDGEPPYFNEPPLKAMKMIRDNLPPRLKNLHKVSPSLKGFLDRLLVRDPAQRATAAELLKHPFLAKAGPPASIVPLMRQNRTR
T6 sequence (Q06187 whole entry): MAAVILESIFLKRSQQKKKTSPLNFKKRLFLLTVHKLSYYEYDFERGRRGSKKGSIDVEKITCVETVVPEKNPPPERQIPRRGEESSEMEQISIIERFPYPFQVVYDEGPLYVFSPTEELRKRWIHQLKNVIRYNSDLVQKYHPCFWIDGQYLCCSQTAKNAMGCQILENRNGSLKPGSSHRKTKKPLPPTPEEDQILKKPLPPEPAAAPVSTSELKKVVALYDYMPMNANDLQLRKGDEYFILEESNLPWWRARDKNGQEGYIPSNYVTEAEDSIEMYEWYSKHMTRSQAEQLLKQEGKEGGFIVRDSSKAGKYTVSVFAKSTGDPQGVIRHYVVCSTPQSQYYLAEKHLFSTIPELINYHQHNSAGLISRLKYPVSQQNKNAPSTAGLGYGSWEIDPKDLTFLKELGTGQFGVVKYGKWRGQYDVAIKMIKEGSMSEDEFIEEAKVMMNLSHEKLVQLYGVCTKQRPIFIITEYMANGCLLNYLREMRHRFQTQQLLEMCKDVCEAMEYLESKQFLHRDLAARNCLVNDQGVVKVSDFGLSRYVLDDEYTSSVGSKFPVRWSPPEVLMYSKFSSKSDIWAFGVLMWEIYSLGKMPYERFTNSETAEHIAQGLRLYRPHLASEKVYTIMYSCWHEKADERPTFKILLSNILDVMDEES
T7 sequence (Q13705 19-512): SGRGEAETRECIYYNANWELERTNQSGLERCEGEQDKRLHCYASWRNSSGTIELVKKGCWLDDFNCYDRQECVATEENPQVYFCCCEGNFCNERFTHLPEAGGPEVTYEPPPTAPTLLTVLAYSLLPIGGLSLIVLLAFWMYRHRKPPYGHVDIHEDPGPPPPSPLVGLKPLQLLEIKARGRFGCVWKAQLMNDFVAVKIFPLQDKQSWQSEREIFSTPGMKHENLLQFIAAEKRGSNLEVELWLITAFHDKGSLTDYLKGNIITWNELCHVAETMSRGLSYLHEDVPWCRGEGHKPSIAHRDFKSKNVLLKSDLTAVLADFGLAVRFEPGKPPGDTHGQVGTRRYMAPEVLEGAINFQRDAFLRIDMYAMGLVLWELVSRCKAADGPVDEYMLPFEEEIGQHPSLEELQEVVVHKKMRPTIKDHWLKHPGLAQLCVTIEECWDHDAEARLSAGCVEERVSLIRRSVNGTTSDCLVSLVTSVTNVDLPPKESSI
T9 sequence (Q7KZI7 whole entry): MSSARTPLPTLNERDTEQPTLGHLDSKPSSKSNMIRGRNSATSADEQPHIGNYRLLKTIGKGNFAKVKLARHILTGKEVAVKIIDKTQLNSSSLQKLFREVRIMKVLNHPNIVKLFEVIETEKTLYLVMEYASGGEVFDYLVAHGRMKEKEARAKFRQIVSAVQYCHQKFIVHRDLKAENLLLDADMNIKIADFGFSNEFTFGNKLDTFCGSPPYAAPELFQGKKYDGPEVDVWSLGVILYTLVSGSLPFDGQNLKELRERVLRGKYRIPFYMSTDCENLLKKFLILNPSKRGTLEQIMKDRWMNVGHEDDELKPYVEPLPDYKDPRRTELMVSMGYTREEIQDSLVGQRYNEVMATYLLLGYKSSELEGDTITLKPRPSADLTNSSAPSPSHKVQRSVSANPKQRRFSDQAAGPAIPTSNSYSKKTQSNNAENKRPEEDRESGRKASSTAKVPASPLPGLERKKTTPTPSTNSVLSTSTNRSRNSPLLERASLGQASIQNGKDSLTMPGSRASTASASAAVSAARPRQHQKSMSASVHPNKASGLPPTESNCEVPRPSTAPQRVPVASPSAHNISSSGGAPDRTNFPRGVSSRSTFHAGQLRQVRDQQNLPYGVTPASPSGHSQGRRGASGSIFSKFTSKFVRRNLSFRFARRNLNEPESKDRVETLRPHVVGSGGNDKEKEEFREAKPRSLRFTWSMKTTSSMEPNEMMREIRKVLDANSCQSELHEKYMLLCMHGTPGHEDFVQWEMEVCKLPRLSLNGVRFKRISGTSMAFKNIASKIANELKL
T4 sequence (P51451 whole entry): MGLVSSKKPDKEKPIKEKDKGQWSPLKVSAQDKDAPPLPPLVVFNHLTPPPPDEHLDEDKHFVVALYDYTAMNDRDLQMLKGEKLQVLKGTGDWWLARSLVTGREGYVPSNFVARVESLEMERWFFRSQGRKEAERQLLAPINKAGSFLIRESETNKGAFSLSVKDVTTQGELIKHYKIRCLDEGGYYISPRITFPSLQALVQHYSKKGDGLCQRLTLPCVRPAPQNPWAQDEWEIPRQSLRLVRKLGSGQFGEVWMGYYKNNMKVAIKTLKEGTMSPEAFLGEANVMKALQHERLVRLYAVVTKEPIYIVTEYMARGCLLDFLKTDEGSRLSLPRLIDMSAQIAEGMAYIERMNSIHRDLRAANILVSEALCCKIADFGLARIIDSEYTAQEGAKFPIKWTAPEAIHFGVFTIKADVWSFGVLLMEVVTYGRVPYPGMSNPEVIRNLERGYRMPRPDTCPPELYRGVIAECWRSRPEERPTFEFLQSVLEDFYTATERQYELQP
T5 sequence (P68400 whole entry): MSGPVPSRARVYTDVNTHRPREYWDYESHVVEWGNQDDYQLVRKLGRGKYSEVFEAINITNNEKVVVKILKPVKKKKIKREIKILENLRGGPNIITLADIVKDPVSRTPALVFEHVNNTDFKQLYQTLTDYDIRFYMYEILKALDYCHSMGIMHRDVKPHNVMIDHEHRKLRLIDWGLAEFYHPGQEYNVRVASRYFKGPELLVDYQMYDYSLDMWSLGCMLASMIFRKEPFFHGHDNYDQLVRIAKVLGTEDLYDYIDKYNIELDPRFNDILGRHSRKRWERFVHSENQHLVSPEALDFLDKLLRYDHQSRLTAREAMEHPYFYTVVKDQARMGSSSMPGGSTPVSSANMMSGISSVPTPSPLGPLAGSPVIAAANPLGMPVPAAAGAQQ

C[C@H]1COCCN1c1nc(-c2ccc(NC(=O)NC3CC3)cc2)cc(-c2ccccc2S(C)(=O)=O)n1 [Example 4, (S)-1-cyclopropyl-3-(4-(2-(3-methylmorpholino)-6-(2-(methylsulfonyl)phenyl)pyrimidin-4-yl)phenyl)urea]
> 10 µM: all assays above

C[C@H]1COCCN1c1cc(-c2ccccc2S(C)(=O)=O)nc(-c2ccc(NC(=O)NC3CC3)cc2)n1 [Example 6, (S)-1-cyclopropyl-3-(4-(4-(3-methylmorpholino)-6-(2-(methylsulfonyl)phenyl)pyrimidin-2-yl)phenyl)urea]
> 10 µM: all assays above

C[C@H]1COCCN1c1nc(-c2ccc(NC(=O)N[C@H]3CCC[C@@H]3O)cc2)cc(-c2cc(F)ccc2S(C)(=O)=O)n1 [Example 76, 1-(4-(6-(5-fluoro-2-(methylsulfonyl)phenyl)-2-((S)-3-methylmorpholino)pyrimidin-4-yl)phenyl)-3-((1S,2S)-2-hydroxycyclopentyl)urea]
not listed: kinases (kinome) [3]
> 10 µM: all other assays above

C[C@H]1COCCN1c1nc(-c2ccc(NC(=O)NC3CC3)cc2)cc(-c2cccnc2S(C)(=O)=O)n1 [Example 46, (S)-1-cyclopropyl-3-(4-(2-(3-methylmorpholino)-6-(2-(methylsulfonyl)pyridin-3-yl)pyrimidin-4-yl)phenyl)urea]
> 10 µM: all assays above

C[C@H]1COCCN1c1cc(-c2ccccn2)nc(-c2ccc(NC(=O)NCCO)cc2)n1 [Example 43, (S)-1-(2-hydroxyethyl)-3-(4-(4-(3-methylmorpholino)-6-(pyridin-2-yl)pyrimidin-2-yl)phenyl)urea]
> 10 µM: all assays above

C[C@H]1COCCN1c1nc(-c2ccc(NC(=O)NC3CC3)cc2)cc(-c2cc(F)ccc2S(C)(=O)=O)n1 [Example 40, (S)-1-cyclopropyl-3-(4-(6-(5-fluoro-2-(methylsulfonyl)phenyl)-2-(3-methylmorpholino)pyrimidin-4-yl)phenyl)urea]
> 10 µM: all assays above

CCNC(=O)Nc1ccc(-c2cc(-c3ccccc3C#N)nc(N3CCOC[C@@H]3C)n2)cc1 [Example 8, (S)-1-(4-(6-(2-cyanophenyl)-2-(3-methylmorpholino)pyrimidin-4-yl)phenyl)-3-ethylurea]
> 10 µM: all assays above
